Values of other authors, collected in patent EP0353388A2, “Floor treatment product” (DYNA-5, INC., priority 1988, dated 1990).

Settings: first dissociation constant of the acid

Compound	first pK value (pK^I)
O=C(O)C(=O)O [oxalic acid]	1.25
O=C(O)CN(CCN(CC(=O)O)CC(=O)O)CC(=O)O [ethylenediaminetetraacetic acid]	2.00
